Source: patent US20260198493A1, “HYDRAZIDE COMPOUND AND AGRICULTURAL/HORTICULTURAL FUNGICIDE” (Nippon Soda Co., Ltd., priority 2022, published 2026)

Assays:
[1] = tested on: Venturia inaequalis; assay: Control test of apple scab disease (sprayed young apple seedlings); type: in vivo; conditions: 125 ppm by mass spray, 12 to 14 days after inoculation
[2] = tested on: Fusarium graminearum; assay: microbe, parasite or virus in culture; type: cell-based; conditions: 96 h, read-out: growth inhibition ratio
[3] = tested on: Botrytis cinerea; assay: Control test of cucumber gray mold (sprayed young cucumber seedlings); type: in vivo; conditions: 96 h, four days after inoculation; for pest or weed control at 25 ppm: 25 ppm by mass spray; for pest or weed control at 125 ppm: 125 ppm by mass spray
Method: Then, the drug liquid was sprayed onto young cucumber seedlings cultivated in a nursery pot (variety “Jihai”-based, cotyledon stage), and then air-dried. […] They were left still in a moist room at 20° C. Four days after inoculation, leaves of the young cucumber seedlings were visually observed, and the control value was calculated from the lesion area ratio in accordance with the following equation. [formula]

[4] = tested on: Erysiphe graminis f.sp.tritici; assay: Control test of wheat powdery mildew disease (sprayed young wheat seedlings); type: in vivo; conditions: Blumeria graminis, 144 h, 125 ppm by mass spray, six days after inoculation
[5] = tested on: Glomerella cingulata; assay: Fungicidal effect test against fungi causing grape ripe rot disease; conditions: Colletotrichum gloeosporioides, 72 h, read-out: growth inhibition ratio
[6] = tested on: Colletotrichum acutatum; assay: Fungicidal effect test against fungi causing apple anthracnose; conditions: 96 h, read-out: growth inhibition ratio
[7] = tested on: Botrytis cinerea; type: cell-based; conditions: 120 h, 25 ppm by volume, Vogel medium, 20° C., five days, dark, read-out: growth inhibition ratio

COC(=O)N(Cc1ccc(C)cc1C)NC(=O)c1cc(C)nnc1Oc1cccc(C2CC2)c1F [b-6, Methyl 2-(3-(3-cyclopropyl-2-fluorophenoxy)-6-methylpyridazine-4-carbonyl)-1-(2,4-dimethylbenzyl)hydrazine-1-carboxylate]
≥ 75%: pest or weed control at 125 ppm [1] | inhibition of growth at 25 ppm [2] | pest or weed control at 25 ppm [3] | pest or weed control at 125 ppm [3] | pest or weed control at 125 ppm [4]

COC(=O)N(Cc1ccc(C)cc1C)NC(=O)c1c(Oc2cccc(C3CC3)c2F)nnc(Cl)c1C [b-15]
≥ 75%: pest or weed control at 125 ppm [1] | inhibition of growth at 25 ppm [5] | inhibition of growth at 25 ppm [2] | pest or weed control at 25 ppm [3] | pest or weed control at 125 ppm [3] | inhibition of growth at 25 ppm [6] | pest or weed control at 125 ppm [4] | inhibition of growth at 25 ppm [7]

COC(=O)N(Cc1ccc(C)cc1C)NC(=O)c1cc(C)ncc1Oc1cccc(C2CC2)c1F [b-16]
≥ 75%: pest or weed control at 125 ppm [1] | inhibition of growth at 25 ppm [5] | inhibition of growth at 25 ppm [2] | pest or weed control at 25 ppm [3] | pest or weed control at 125 ppm [3] | inhibition of growth at 25 ppm [6] | pest or weed control at 125 ppm [4] | inhibition of growth at 25 ppm [7]

Cc1ccc(CN(NC(=O)c2cc(C)nnc2Oc2cccc(C3CC3)c2F)C(=O)OC(C)(C)C)c(C)c1 [b-22]
≥ 75%: pest or weed control at 125 ppm [1] | inhibition of growth at 25 ppm [5] | inhibition of growth at 25 ppm [2] | pest or weed control at 25 ppm [3] | pest or weed control at 125 ppm [3] | inhibition of growth at 25 ppm [6] | pest or weed control at 125 ppm [4] | inhibition of growth at 25 ppm [7]

COC(=O)N(Cc1ccc(C)cc1C)NC(=O)c1cc(C)nnc1Oc1cccc(Cl)c1F [b-23, Methyl 2-(3-(3-chloro-2-fluorophenoxy)-6-methylpyridazine-4-carbonyl)-1-(2,4-dimethylbenzyl)hydrazine-1-carboxylate]
≥ 75%: pest or weed control at 125 ppm [1] | inhibition of growth at 25 ppm [5] | inhibition of growth at 25 ppm [2] | pest or weed control at 25 ppm [3] | pest or weed control at 125 ppm [3] | inhibition of growth at 25 ppm [6] | pest or weed control at 125 ppm [4] | inhibition of growth at 25 ppm [7]

COC(=O)N(Cc1ccc(C)cc1C)NC(=O)c1cc(Cl)nnc1Oc1cccc(C2CC2)c1F [b-28]
≥ 75%: pest or weed control at 125 ppm [1] | inhibition of growth at 25 ppm [5] | inhibition of growth at 25 ppm [2] | pest or weed control at 25 ppm [3] | pest or weed control at 125 ppm [3] | inhibition of growth at 25 ppm [6] | pest or weed control at 125 ppm [4] | inhibition of growth at 25 ppm [7]

COC(=O)N(Cc1ccc(C)cc1C)NC(=O)c1cc(C)ncc1Oc1cccc(Br)c1 [b-31]
≥ 75%: pest or weed control at 125 ppm [1] | inhibition of growth at 25 ppm [5] | inhibition of growth at 25 ppm [2] | pest or weed control at 25 ppm [3] | pest or weed control at 125 ppm [3] | inhibition of growth at 25 ppm [6] | pest or weed control at 125 ppm [4] | inhibition of growth at 25 ppm [7]

CCOC(=O)N(Cc1ccc(C)cc1C)NC(=O)c1cc(C)ncc1Oc1cccc(C2CC2)c1F [b-33]
≥ 75%: pest or weed control at 125 ppm [1] | inhibition of growth at 25 ppm [5] | inhibition of growth at 25 ppm [2] | pest or weed control at 125 ppm [3] | inhibition of growth at 25 ppm [6] | pest or weed control at 125 ppm [4] | inhibition of growth at 25 ppm [7]

COC(=O)N(Cc1ccc(Cl)cc1C)NC(=O)c1cc(C)nnc1Oc1cccc(C2CC2)c1F [b-34]
≥ 75%: pest or weed control at 125 ppm [1] | inhibition of growth at 25 ppm [5] | inhibition of growth at 25 ppm [2] | pest or weed control at 25 ppm [3] | pest or weed control at 125 ppm [3] | inhibition of growth at 25 ppm [6] | pest or weed control at 125 ppm [4] | inhibition of growth at 25 ppm [7]

COC(=O)N(Cc1ccc(C)cc1C)NC(=O)c1cc(C)nnc1Oc1cccc(C(F)(F)F)c1F [b-36]
≥ 75%: pest or weed control at 125 ppm [1] | inhibition of growth at 25 ppm [5] | inhibition of growth at 25 ppm [2] | pest or weed control at 25 ppm [3] | pest or weed control at 125 ppm [3] | inhibition of growth at 25 ppm [6] | pest or weed control at 125 ppm [4] | inhibition of growth at 25 ppm [7]

COC(=O)N(Cc1ccc(C)cc1C)NC(=O)c1cc(C)nnc1Oc1cccc(Br)c1F [b-38]
≥ 75%: pest or weed control at 125 ppm [1] | inhibition of growth at 25 ppm [5] | inhibition of growth at 25 ppm [2] | pest or weed control at 25 ppm [3] | pest or weed control at 125 ppm [3] | inhibition of growth at 25 ppm [6] | pest or weed control at 125 ppm [4] | inhibition of growth at 25 ppm [7]

COC(=O)N(Cc1ccc(C)cc1C)NC(=O)c1nc(C)ncc1Oc1cccc(C2CC2)c1F [b-42, Methyl 2-(5-(3-cyclopropyl-2-fluorophenoxy)-2-methylpyrimidine-4-carbonyl)-1-(2,4-dimethylbenzyl)hydrazine-1-carboxylate]
≥ 75%: pest or weed control at 125 ppm [1] | inhibition of growth at 25 ppm [5] | inhibition of growth at 25 ppm [2] | pest or weed control at 25 ppm [3] | pest or weed control at 125 ppm [3] | inhibition of growth at 25 ppm [6] | pest or weed control at 125 ppm [4] | inhibition of growth at 25 ppm [7]

CCOC(=O)N(Cc1ccc(C)cc1C)NC(=O)c1nc(C)ncc1Oc1cccc(C2CC2)c1F [b-43]
≥ 75%: pest or weed control at 125 ppm [1] | inhibition of growth at 25 ppm [5] | inhibition of growth at 25 ppm [2] | pest or weed control at 25 ppm [3] | pest or weed control at 125 ppm [3] | inhibition of growth at 25 ppm [6] | pest or weed control at 125 ppm [4] | inhibition of growth at 25 ppm [7]

COC(=O)N(Cc1ccc(Br)cc1C)NC(=O)c1cc(C)nnc1Oc1cccc(C2CC2)c1F [b-45]
≥ 75%: pest or weed control at 125 ppm [1] | inhibition of growth at 25 ppm [5] | inhibition of growth at 25 ppm [2] | pest or weed control at 25 ppm [3] | pest or weed control at 125 ppm [3] | inhibition of growth at 25 ppm [6] | pest or weed control at 125 ppm [4] | inhibition of growth at 25 ppm [7]

COC(=O)N(Cc1ccc(C)cc1Cl)NC(=O)c1cc(C)nnc1Oc1cccc(C2CC2)c1F [b-46]
≥ 75%: pest or weed control at 125 ppm [1] | inhibition of growth at 25 ppm [5] | inhibition of growth at 25 ppm [2] | pest or weed control at 25 ppm [3] | pest or weed control at 125 ppm [3] | inhibition of growth at 25 ppm [6] | pest or weed control at 125 ppm [4] | inhibition of growth at 25 ppm [7]

COC(=O)N(Cc1ccc(C)cc1C)NC(=O)c1cc(C)nnc1Oc1cccc(C(F)(F)F)c1 [b-53]
≥ 75%: pest or weed control at 125 ppm [1] | inhibition of growth at 25 ppm [5] | inhibition of growth at 25 ppm [2] | pest or weed control at 25 ppm [3] | pest or weed control at 125 ppm [3] | inhibition of growth at 25 ppm [6] | pest or weed control at 125 ppm [4] | inhibition of growth at 25 ppm [7]

COC(=O)N(Cc1ccc(C)cc1C)NC(=O)c1cc(C)nnc1Oc1cccc(Br)c1 [b-55]
≥ 75%: pest or weed control at 125 ppm [1] | inhibition of growth at 25 ppm [5] | inhibition of growth at 25 ppm [2] | pest or weed control at 25 ppm [3] | pest or weed control at 125 ppm [3] | inhibition of growth at 25 ppm [6] | pest or weed control at 125 ppm [4] | inhibition of growth at 25 ppm [7]

C#Cc1cccc(Oc2nnc(C)cc2C(=O)NN(Cc2ccc(C)cc2C)C(=O)OC)c1 [b-138]
≥ 75%: pest or weed control at 125 ppm [1] | inhibition of growth at 25 ppm [5] | inhibition of growth at 25 ppm [2] | pest or weed control at 25 ppm [3] | pest or weed control at 125 ppm [3] | inhibition of growth at 25 ppm [6] | inhibition of growth at 25 ppm [7]
